In patent US20080071116A1, “Modulators of Lysophosphatidic Acid (Lpa) Signaling and the Use Thereof” (THE BOARD OF REGENTS OF THE UNIVERSITY OF TEXAS SYSTEM, priority 2004, published 2008):
“Also recorded” adds a separate entry of the source.

What was measured:
PC-3 cells [1] = assay: calcium mobilization assay in androgen insensitive prostate cancer PC-3 cells; format: cell-based, human
Procedure: (§1) The procedures for these calcium mobilization assays are as followed: OVCAR3 cells and PC-3 cells were cultured in RPMI 1640 medium with 10% FBS (fetal bovine serum). HT29 cells were cultured in DMEM (high glucose) medium with 10% FBS. All cells were cultured at about 37° C. in a humidified atmosphere with 5% CO2. After starvation in serum-free medium for about 12-24 hours, cells were harvested and loaded with about 1 μM of Indo-1 AM in serum-free medium for about 45 min at 37° C. Cells were washed in PBS and resuspended at 2×10^6 cells/ml in a [Ca^2+]i assay buffer (Sodium chloride, NaCl, about 140 mM, potassium chloride, KCl, about 2 mM, magnesium chloride, MgCl2, about 1 mM, calcium chloride, CaCl2, about 2 mM, in about 25 mM HEPES buffer at pH 7.4 with about 10 mM of glucose). Cytoplasmic [Ca^2+]i was determined at an excitation wavelength of about 331 nm and an emission wavelength of 410 nm using a fluorescence spectrophotometer (Hitachi, F-4000). Approximately 3×10^6 cells were used for [Ca^2+]l determination in a stirred quartz cuvette kept at about 37° C. OMPT or 18:1 LPA was dissolved in about 0.1% BSA/PBS solution and applied immediately to the cells. To test other LPA derivatives of the invention, cells were exposed to the derivatives for about 3 minutes or for a period of various times in time course related experiments before a LPA agonist, such as 18:1 LPA, OMPT, or other LPAs was applied into the cuvette.
(§2) The concentration of calcium mobilization giving the half-maximal response (EC50) was obtained from the concentration-response curve fitted to a sigmoidal logistic equation, with the maximal calcium response set to 100% using the GraphPad Prism. Maximal response value is expressed as mean +/−s.e.m. EC50 value is expressed with 95% confidence.

PC-3 cells [2] = assay: cell growth (cell viability) in PC-3 cells; format: cell-based, human; conditions: for inhibition of cell growth (cell viability): PC-3
HT29 cells [3] = assay: calcium mobilization assay in colon cancer HT29 cells; format: cell-based
Procedure: as §1, §2

DU145 cells [4] = assay: cell growth (cell viability) in DU145 cells; format: cell-based, human
DU145 cells [5] = assay: calcium mobilization assay in androgen insensitive prostate cancer DU145 cells; format: cell-based, human
PC-3 cells [6] = assay: lamellipodia formation in PC-3 cells; format: cell-based, human; conditions: 30 μM; for effect on spontaneously activated lamellipodia: PC-3, serum-free, FIGS. 38-40; for inhibition of 18:1 LPA-induced lamellipodia formation: PC-3, FIGS. 42-44
LNCaP cells = assay: calcium mobilization in androgen sensitive prostate cancer LNCaP cells; format: cell-based
LPA3 receptor [7] = target: T1, LPA3 receptor (Homo sapiens, UniProt Q9UBY5); assay: HA-Erk1 phosphorylation in HEK 293 T cells transfected with LPA3; format: cell-based; set-up: expressed in transfected cells; conditions: LPA3 transfected HEK 293 T; 0.01, 0.1, or 1 μM
T1 sequence (Q9UBY5 1-353): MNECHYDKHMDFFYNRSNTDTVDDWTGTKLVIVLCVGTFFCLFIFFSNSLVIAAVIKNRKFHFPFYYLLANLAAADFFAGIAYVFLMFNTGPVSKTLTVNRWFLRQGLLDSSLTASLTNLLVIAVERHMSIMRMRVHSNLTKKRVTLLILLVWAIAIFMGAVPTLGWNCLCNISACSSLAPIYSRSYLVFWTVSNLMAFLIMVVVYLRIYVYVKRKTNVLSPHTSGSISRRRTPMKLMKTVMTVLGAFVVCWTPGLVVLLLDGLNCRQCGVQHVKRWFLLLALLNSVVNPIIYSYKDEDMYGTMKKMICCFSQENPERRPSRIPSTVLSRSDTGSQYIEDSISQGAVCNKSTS
Description: (§3) We have also tested kinase activation by the LPA3 receptor subtype using OMPT as a tool. We determined whether activation of the LPA3 receptor by OMPT can be linked to ERK activation (related to MAP kinase signaling pathway) in mammalian cells, HEK 293 T cells, by co-transfecting hemagglutinin (HA)-tagged Erk1 (HA-Erk1) with either a control vector or an expression vector having LPA1, LPA2, or LPA3. […] There is no phosphorylation of HA-Erk1 at lower concentration of LPA or OMPT in the absence of LPA receptors. […] Thus, the data confirmed that OMPT, an LPA derivative, is a selective agonist for LPA3 receptor subtype, capable of inducing MAPK activation.

LPA1 receptor [8] = target: T2, LPA1 receptor (Homo sapiens, UniProt Q92633); assay: HA-Erk1 phosphorylation in HEK 293 T cells transfected with LPA1; format: cell-based; set-up: FLAG; expressed in transfected cells; host or cells: HEK 293 T cells; conditions: LPA1 transfected HEK 293 T; 0.01, 0.1, or 1 μM
Description: as §3

LPA2 receptor [9] = target: T3, LPA2 receptor (Homo sapiens, UniProt Q9HBW0); assay: HA-Erk1 phosphorylation in HEK 293 T cells transfected with LPA2; format: cell-based; set-up: expressed in transfected cells; conditions: LPA2 transfected HEK 293 T; 0.01, 0.1, or 1 μM
Description: as §3

interleukin-8 (IL-8) = assay: IL-8 transcription and secretion; format: cell-based, human; conditions: PC-3 cells
PC-3 cells [10] = assay: membrane ruffling and cell migration in PC-3 cells; format: cell-based, human
OVCAR3 cells = assay: calcium mobilization assay in ovarian cancer OVCAR3 cells; format: cell-based, human; conditions: OVCAR3
Procedure: as §1, §2

ERK1/2 = ERK1/2 (p42/p44-MAPK) phosphorylation immunoblot in prostate cancer cells; format: cell-based, human
Procedure: (§4) The cells were then lysed in SDA sample buffer or ice-cold X-100 lysis buffer (1% Triton X-100, 50 mM HEPES [pH7.4], 150 mM NaCl, 1.5 mM MgCl2, 1 mM EGTA, 10% glycerol, 100 mM NaF, 10 mM Na pyrophosphate, and 1 mM aprotinin). Total cellular protein was resolved by SDS/PAGE, transferred to immobilon [poly (vinylidene difluoride)], and immunoblotted with antibodies following the protocols provided by manufactures. Immunocomplexes were visualized with an enhanced chemiluminescence detection kit (Amersham Pharmacia) using horseradish peroxidase-conjugated secondary antibodies (Bio-Rad).

[11] = system: vasodilator-stimulated protein (VASP); assay: VASP phosphorylation in PC-3 cells; format: cell-based, human
Procedure: as §4
To determine the mechanisms regulating LPA-induced cell migration, actin filament binding proteins that link receptor signaling to lamellipodia formation were evaluated.

DU145 cells [12] = assay: cell migration of DU145 cells; format: cell-based, human
Jurkat T cells = conditions: human Jurkat T cells; Xu et al. 1995; cited from earlier work
HT29 cells [13] = assay: lamellipodia formation in colon cancer HT29 cells; format: cell-based; conditions: HT29, FIG. 26
AKT = AKT phosphorylation immunoblot in prostate cancer cells; format: cell-based, human; conditions: PC-3 and DU145 cells
Procedure: as §4

PC-3 cells [14] = assay: cellular proliferation and growth factor withdrawal-induced apoptosis; format: cell-based, human
LPA2 receptor [15] = target: T3, LPA2 receptor; assay: calcium mobilization in Sf9 insect cells expressing LPA2; format: cell-based; set-up: expressed in transfected cells; host or cells: Sf9 insect cells; conditions: Sf9 cells expressing LPA2; read-out: EC50 of increase in intracellular calcium concentration
LPA1 receptor [16] = target: T2, LPA1 receptor; assay: calcium mobilization in Sf9 insect cells expressing LPA1; format: cell-based; conditions: Sf9 cells expressing LPA1
p38-MAPK = p38-MAPK activation, phosphospecific antibodies; format: cell-based, human; conditions: PC-3 and DU145 cells
Procedure: as §4

LPA3 receptor [17] = target: T1, LPA3 receptor; assay: calcium mobilization in Sf9 insect cells expressing LPA3; format: cell-based; set-up: expressed in transfected cells; host or cells: Sf9 insect cells
PKA = PKA activation in PC-3 cells; format: cell-based, human
[18] = in the presence of 10 μM of 18:1 LPA, FIGS. 45-47

T2 sequence (Q92633 whole entry): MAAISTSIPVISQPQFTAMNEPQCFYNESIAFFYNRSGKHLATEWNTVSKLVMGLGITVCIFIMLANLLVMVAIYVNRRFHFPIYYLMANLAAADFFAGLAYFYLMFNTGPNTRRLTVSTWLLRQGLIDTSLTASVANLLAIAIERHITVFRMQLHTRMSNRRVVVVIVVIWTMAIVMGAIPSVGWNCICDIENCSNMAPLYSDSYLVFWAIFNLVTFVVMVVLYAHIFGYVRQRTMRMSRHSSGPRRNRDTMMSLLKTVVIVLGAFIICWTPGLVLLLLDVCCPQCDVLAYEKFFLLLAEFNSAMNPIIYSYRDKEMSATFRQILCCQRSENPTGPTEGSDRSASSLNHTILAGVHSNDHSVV
T3 sequence (Q9HBW0 whole entry): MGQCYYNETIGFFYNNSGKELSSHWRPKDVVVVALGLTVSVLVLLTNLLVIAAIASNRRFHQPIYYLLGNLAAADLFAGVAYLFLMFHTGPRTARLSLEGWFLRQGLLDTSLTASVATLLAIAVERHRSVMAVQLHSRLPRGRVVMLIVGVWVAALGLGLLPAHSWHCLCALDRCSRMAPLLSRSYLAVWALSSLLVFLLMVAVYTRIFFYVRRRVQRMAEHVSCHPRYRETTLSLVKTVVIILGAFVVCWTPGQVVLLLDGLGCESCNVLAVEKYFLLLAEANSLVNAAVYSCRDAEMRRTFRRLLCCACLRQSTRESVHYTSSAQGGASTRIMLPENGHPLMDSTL

With `CCCCCCCC/C=C\CCCCCCCC(=O)OC[C@@H](O)COP(=O)(O)OCC(O)CO` (mixture of isomers) [18:1 LPG, 1-oleoyl-2-hydroxy-sn-glycero-3-[phospho-rac-(1-glycerol)]] the “inhibition of OMPT-induced calcium mobilization” value (PC-3 cells [1]; FIGS. 19-20) was “effective inhibitor/antagonist”, the “inhibition of cell growth (cell viability)” value (“inhibition of cell growth” for short) (PC-3 cells [2]; [18]) was “inhibition of cell growth (cell viability) at high concentrations” and the “inhibition of cell growth” value (PC-3 cells [2]; without LPA, FIGS. 46-47) was “inhibition of cell growth (cell viability) at high concentrations”. For the same compound, the “reduction of cell viability / cell growth” value (PC-3 cells [2]; PC-3 cells) was “reduced cell viability”, the “inhibition of (18:1) LPA-induced calcium mobilization” value (HT29 cells [3]; HT29 cells (only express LPA2), FIGS. 21-22) was “effective inhibitors/antagonists” and the “reduction of cell viability / cell growth” value (DU145 cells [4]) was “reduced cell viability”. The “antagonism of 18:1 LPA-induced calcium mobilization” value (DU145 cells [5]; 10 and 30 μM in FIGS. 15-18) was “completely antagonized”, the “antagonism of 18:1 LPA-induced calcium mobilization” value (DU145 cells [5]; 10 and 30 μM in FIGS. 15-18, listed as 18:1-acyl-LPG) was “shifted to the right” and the “effect on spontaneously activated lamellipodia” value (PC-3 cells [6]) was “inhibit spontaneously activated lamellipodia”. The “inhibition of 18:1 LPA-induced lamellipodia formation” value (PC-3 cells [6]) was “inhibition of 18:1 LPA-induced LPA2 receptor mediated lamellipodia formation”.

In the case of “lysophosphatidic acid [LPA, reference compound]”, the calcium mobilization (LNCaP cells) is reported as “does not induce the increase of intracellular calcium concentration”, the HA-Erk1 phosphorylation (LPA3 receptor [7]) is reported as “stimulates phosphorylation of HA-Erk1 in a dose-dependent manner” and the HA-Erk1 phosphorylation (LPA1 receptor [8]) is reported as “stimulates phosphorylation of HA-Erk1 in a dose-dependent manner”. For the same compound, the HA-Erk1 phosphorylation (LPA2 receptor [9]) was “stimulates phosphorylation of HA-Erk1 in a dose-dependent manner” and the “IL-8 transcription and secretion” value (interleukin-8 (IL-8)) was “increases interleukin-8 (IL-8) transcription and stimulates IL-8 secretion”.

With `O=S(=O)(NCCNC/C=C/c1ccc(Br)cc1)c1cccc2cnccc12` [H-89] the “inhibition of membrane ruffling and cell migration induced by 18:1 LPA and 14:0 LPA” value (PC-3 cells [10]) was “completely inhibited membrane ruffling and cell migration”.

With `CCCCCCCCCCCCCC(=O)OC[C@@H](O)COP(=O)(O)OCC(O)CO` (mixture of isomers) [14:0 LPG, 1-myristoyl-2-hydroxy-sn-glycero-3-[phospho-rac-(1-glycerol)]] the “inhibition of cell growth” value (PC-3 cells [2]; [18]) was “inhibition of cell growth (cell viability) at high concentrations”, the “inhibition of 14:0 LPA-induced calcium mobilization” value (DU145 cells [5]) was “inhibited calcium mobilization; also recorded: effective inhibitor/antagonist” and the “effect on spontaneously activated lamellipodia” value (PC-3 cells [6]) was “negligible effect”. The “inhibition of 18:1 LPA-induced lamellipodia formation” value (PC-3 cells [6]) was “no inhibition”.

With “D-3-deoxy-phosphophatidyl-myo-inositol ether lipid [DPIEL]” the “maximum calcium response to OMPT” value (OVCAR3 cells; DPIEL about 10 μM exposed group (control about 123.5+/−16.4 nM)) was “about 136.1+/−16.6 nM”, the “suppression of the maximum response to OMPT” value (OVCAR3 cells; about 20 μM DPIEL) was “about 36%” and the “inhibition of EGF-induced phosphorylation of ERK1/2” value (ERK1/2; LNCaP cells, FIG. 8B) was “fails to reduce EGF-induced phosphorylation of ERK1/2”. The “inhibition of ERK1/2 phosphorylation activated by 18:1 LPA and 14:0 LPA” value (ERK1/2; PC-3 cells, DPIEL about 30 minutes, FIG. 8A) was “inhibits phosphorylation of the extracellular signal-regulating kinase (ERK1/2)”, the “inhibition of LPA-induced cell migration” value (PC-3 cells [10]) was “inhibits” and the “suppression of maximum calcium mobilization induced by 18:1 LPA” value (PC-3 cells [1]; FIG. 7) was “about 56%”. For the same compound, the “inhibition of (18:1) LPA-induced calcium mobilization” value (HT29 cells [3]; HT29 cells (express only LPA2), FIG. 6) was “does not inhibit calcium mobilization”, the “inhibition of VASP phosphorylation” value [11] was “inhibits phosphorylation of vasodilator stimulated protein (VASP)” and the “inhibition of LPA-induced cell migration” value (DU145 cells [12]) was “inhibits”.

For lysophosphatidyl glycerol [LPG], the “inhibition of LPA signaling” value (Jurkat T cells) is listed as “inhibitor of LPA signaling”.

With `CCCCCCCCCCCCCC(=O)OC[C@@H](O)COP(=O)(O)O` [14:0 LPA, reference compound] the activation of lamellipodia (HT29 cells [13]) was “strong activator of lamellipodia”, the “activation of AKT” value (AKT) was “only marginal effects” and the “activation of p42/p44-MAPK” value (ERK1/2; PC-3 and DU145 cells) was “efficiently activates p42/p44-MAPK”. For the same compound, the “stimulation of membrane ruffling and cell migration” value (PC-3 cells [10]) was “stimulate membrane ruffling and cell migration”, the EC50 (PC-3 cells [1]) was ~98 nM and the “cellular proliferation and prevention of growth factor withdrawal-induced apoptosis” value (PC-3 cells [14]) was “does not increase cellular proliferation”. For the same compound, the EC50 (LPA2 receptor [15]) was 0.1 nM, the “elevation of intracellular calcium” value (LPA1 receptor [16]) was “no elevated intracellular calcium concentration is observed” and the “activation of p38-MAPK” value (p38-MAPK) was “only marginal effects”. The calcium mobilization (LPA3 receptor [17]) was “no elevated intracellular calcium concentration is observed”, the “activation of PKA” value (PKA) was “efficiently activate PKA” and the “induction of VASP phosphorylation at Ser157 PKA site” value [11] was “induced phosphorylation”.

For EGF: epidermal growth factor, the “induction of VASP phosphorylation at Ser157 PKA site” value [11] was “Neither OMPT nor EGF increased phosphorylation of VASP”.
